Measured values reported in the supplement of paper PMC10307832.

Experiments:
Test in all cases: relative viability (nuclei count vs DMSO), 5 days (fraction); higher = more cells survive
Elesclomol + Navitoclax = compound: CN(NC(=O)CC(=O)NN(C)C(=S)c1ccccc1)C(=S)c1ccccc1 [Elesclomol] + CC1(C)CCC(c2ccc(Cl)cc2)=C(CN2CCN(c3ccc(C(=O)NS(=O)(=O)c4ccc(N[C@H](CCN5CCOCC5)CSc5ccccc5)c(S(=O)(=O)C(F)(F)F)c4)cc3)CC2)C1 [Navitoclax] (partner 0.5 µM)
Method in brief: (§1)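 Lung cancer cell lines in 1536-well plates got either a single drug or a fixed anchor-drug dose together with five library-drug doses (not always all listed) in √10 steps, by pin tool, on the day after seeding. Nuclei were counted after 5 days, and relative viability is the treated-to-vehicle ratio of nuclei counts. Values are medians of duplicate plates.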

Elesclomol + Foretinib = compound: CN(NC(=O)CC(=O)NN(C)C(=S)c1ccccc1)C(=S)c1ccccc1 [Elesclomol] + COc1cc2c(Oc3ccc(NC(=O)C4(C(=O)Nc5ccc(F)cc5)CC4)cc3F)ccnc2cc1OCCCN1CCOCC1 [Foretinib] (partner 0.25 µM)
Method in brief: as §1

Elesclomol + Dasatinib = compound: CN(NC(=O)CC(=O)NN(C)C(=S)c1ccccc1)C(=S)c1ccccc1 [Elesclomol] + Cc1nc(Nc2ncc(C(=O)Nc3c(C)cccc3Cl)s2)cc(N2CCN(CCO)CC2)n1 [Dasatinib] (partner 0.075 µM)
Method in brief: as §1

Elesclomol + Decitabine = compound: CN(NC(=O)CC(=O)NN(C)C(=S)c1ccccc1)C(=S)c1ccccc1 [Elesclomol] + Nc1ncn([C@H]2C[C@H](O)[C@@H](CO)O2)c(=O)n1 [Decitabine] (partner 2 µM)
Method in brief: as §1

Elesclomol + Tozasertib = compound: CN(NC(=O)CC(=O)NN(C)C(=S)c1ccccc1)C(=S)c1ccccc1 [Elesclomol] + Cc1cc(Nc2cc(N3CCN(C)CC3)nc(Sc3ccc(NC(=O)C4CC4)cc3)n2)n[nH]1 [Tozasertib] (partner 0.1 µM)
Method in brief: as §1

| Cell Line | relative viability (Elesclomol + Navitoclax; first compound 0.003162 µM) | relative viability (Elesclomol + Navitoclax; first compound 0.01 µM) | relative viability (Elesclomol + Navitoclax; first compound 0.03162 µM) | relative viability (Elesclomol + Navitoclax; first compound 0.1 µM) | relative viability (Elesclomol + Foretinib; first compound 0.003162 µM) | relative viability (Elesclomol + Foretinib; first compound 0.01 µM) | relative viability (Elesclomol + Foretinib; first compound 0.03162 µM) | relative viability (Elesclomol + Foretinib; first compound 0.1 µM) | relative viability (Elesclomol + Dasatinib; first compound 0.003162 µM) | relative viability (Elesclomol + Dasatinib; first compound 0.01 µM) | relative viability (Elesclomol + Dasatinib; first compound 0.03162 µM) | relative viability (Elesclomol + Dasatinib; first compound 0.1 µM) | relative viability (Elesclomol + Decitabine; first compound 0.003162 µM) | relative viability (Elesclomol + Decitabine; first compound 0.01 µM) | relative viability (Elesclomol + Decitabine; first compound 0.03162 µM) | relative viability (Elesclomol + Decitabine; first compound 0.1 µM) | relative viability (Elesclomol + Tozasertib; first compound 0.003162 µM) | relative viability (Elesclomol + Tozasertib; first compound 0.01 µM) | relative viability (Elesclomol + Tozasertib; first compound 0.03162 µM) | relative viability (Elesclomol + Tozasertib; first compound 0.1 µM) |
| --- | --- | --- | --- | --- | --- | --- | --- | --- | --- | --- | --- | --- | --- | --- | --- | --- | --- | --- | --- | --- |
| NCI-H727 | 0.368 | 0.213 | 0.109 | 0.0643 | 0.745 | 0.611 | 0.526 | 0.317 | 0.319 | 0.242 | 0.128 | 0.0864 | 0.98 | 0.836 | 0.847 | 0.528 | 0.661 | 0.357 | 0.424 | 0.249 |
| NCI-H838 | 1.15 | 1.06 | 0.962 | 0.739 | 1.07 | 0.854 | 0.66 | 0.419 | 0.287 | 0.296 | 0.224 | 0.177 | 0.469 | 0.433 | 0.403 | 0.249 | 0.282 | 0.25 | 0.18 | 0.172 |
| NCI-H1355 | 1.03 | 0.705 | 0.469 | 0.14 | 0.951 | 0.894 | 0.514 | 0.207 | 0.736 | 0.639 | 0.396 | 0.178 | 0.352 | 0.336 | 0.268 | 0.2 | 0.505 | 0.538 | 0.332 | 0.173 |
| NCI-H1395 | 1.09 | 0.475 | 0.286 | 0.469 | 1.06 | 0.665 | 0.332 | 0.324 | 0.387 | 0.304 | 0.266 | 0.22 | 0.754 | 0.532 | 0.318 | 0.249 | 0.832 | 0.461 | 0.243 | 0.276 |
| NCI-H1437 | 1.02 | 0.67 | 0.474 | 0.455 | 1.11 | 0.79 | 0.609 | 0.464 | 0.246 | 0.18 | 0.116 | 0.128 | 0.602 | 0.493 | 0.438 | 0.337 | 0.348 | 0.344 | 0.252 | 0.23 |
| NCI-H1650 | 0.734 | 0.331 | 0.168 | 0.0893 | 0.525 | 0.306 | 0.132 | 0.136 | 0.21 | 0.17 | 0.156 | 0.154 | 0.306 | 0.219 | 0.16 | 0.0942 | 0.227 | 0.168 | 0.139 | 0.136 |
| NCI-H1651 | 0.971 | 0.525 | 0.137 | 0.0728 | 0.727 | 0.436 | 0.0766 | 0.0932 | 0.343 | 0.258 | 0.115 | 0.0916 | 0.596 | 0.608 | 0.577 | 0.4 | 0.6 | 0.601 | 0.116 | 0.108 |
